Experimental data from the supplement of paper PMC11208160.

experiment: recombinant barcode read abundance after kanamycin selection (control-corrected) (log10(CPM+1)); higher = more efficient recombination; sequences stand for … in AGTGCAGAGAAAATCGGCCAGTTTTCTCTGCCTGCAGTCCGCATGCCGT…ATTTATGCAGCGGACTGCCTTTCTCCCAAAGTGATAAACCGGACAGTATCATGGACCGGTTTTCCCGGTAATCCGTATTTGCAAGGTTGGTTTCACT; site = the 11-nt target
In short: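 Values are log10(CPM+1) from a pooled E. coli screen of targets paired with IS621 bridge RNA target-binding loops. Recombination efficiency here means counts per million of recombinant-junction barcodes, averaged and control-corrected. Plates were chloramphenicol/ampicillin LB agar for the control and chloramphenicol/ampicillin/kanamycin with 0.1 mM IPTG, two replicates each.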

Sequence	recombinant barcode read abundance (log10)
GTCGCCCAGTGGGTTCTAACCTGTTGCTAAG [GTCGCCCCTTA_LTGcore_AG_RTGcore_CT] (site GTCGCCCCTTA) (LTG core: AG, RTG core: CT)	0.139
GTCGCCCAGTGGGTTCTAACCTGTTGCTACT [GTCGCCCCTTA_LTGcore_AG_RTGcore_AG] (site GTCGCCCCTTA) (LTG core: AG, RTG core: AG)	0.283
GTCGCCCCATGGGTTCTAACCTGTTGCTATG [GTCGCCCCTTA_LTGcore_CA_RTGcore_CA] (site GTCGCCCCTTA) (LTG core: CA, RTG core: CA)	0.379
GTCGCCCCGTGGGTTCTAACCTGTTGCTAAG [GTCGCCCCTTA_LTGcore_CG_RTGcore_CT] (site GTCGCCCCTTA) (LTG core: CG, RTG core: CT)	0.325
GTCGCCCCTTGGGTTCTAACCTGTTGCTAGC [GTCGCCCCTTA_LTGcore_CT_RTGcore_GC] (site GTCGCCCCTTA) (LTG core: CT, RTG core: GC)	0.805
GTCGCCCGATGGGTTCTAACCTGTTGCTAAG [GTCGCCCCTTA_LTGcore_GA_RTGcore_CT] (site GTCGCCCCTTA) (LTG core: GA, RTG core: CT)	0
GTCGCCCGATGGGTTCTAACCTGTTGCTATC [GTCGCCCCTTA_LTGcore_GA_RTGcore_GA] (site GTCGCCCCTTA) (LTG core: GA, RTG core: GA)	0.103
GTCGCCCGGTGGGTTCTAACCTGTTGCTACC [GTCGCCCCTTA_LTGcore_GG_RTGcore_GG] (site GTCGCCCCTTA) (LTG core: GG, RTG core: GG)	0.458
GTCGCCCGTTGGGTTCTAACCTGTTGCTAAG [GTCGCCCCTTA_LTGcore_GT_RTGcore_CT] (site GTCGCCCCTTA) (LTG core: GT, RTG core: CT)	0.431
GTCGCCCTCTGGGTTCTAACCTGTTGCTAGA [GTCGCCCCTTA_LTGcore_TC_RTGcore_TC] (site GTCGCCCCTTA) (LTG core: TC, RTG core: TC)	0.236
TAAGAATAATGGGTTCTAACCTGTTGCCTTT [TAAGAATCTAG_LTGcore_AA_RTGcore_AA] (site TAAGAATCTAG) (LTG core: AA, RTG core: AA)	1.48
TAAGAATATTGGGTTCTAACCTGTTGCCTAT [TAAGAATCTAG_LTGcore_AT_RTGcore_AT] (site TAAGAATCTAG) (LTG core: AT, RTG core: AT)	0.141
TAAGAATCCTGGGTTCTAACCTGTTGCCTAG [TAAGAATCTAG_LTGcore_CC_RTGcore_CT] (site TAAGAATCTAG) (LTG core: CC, RTG core: CT)	0.193
TAAGAATCTTGGGTTCTAACCTGTTGCCTCG [TAAGAATCTAG_LTGcore_CT_RTGcore_CG] (site TAAGAATCTAG) (LTG core: CT, RTG core: CG)	1.61
TAAGAATCTTGGGTTCTAACCTGTTGCCTCT [TAAGAATCTAG_LTGcore_CT_RTGcore_AG] (site TAAGAATCTAG) (LTG core: CT, RTG core: AG)	0.422
TAAGAATCTTGGGTTCTAACCTGTTGCCTGA [TAAGAATCTAG_LTGcore_CT_RTGcore_TC] (site TAAGAATCTAG) (LTG core: CT, RTG core: TC)	0.145
TAAGAATCTTGGGTTCTAACCTGTTGCCTTT [TAAGAATCTAG_LTGcore_CT_RTGcore_AA] (site TAAGAATCTAG) (LTG core: CT, RTG core: AA)	0.421
TAGAGGGAATGGGTTCTAACCTGTTGCGGTT [TAGAGGGCTCC_LTGcore_AA_RTGcore_AA] (site TAGAGGGCTCC) (LTG core: AA, RTG core: AA)	0.0221
TAGAGGGACTGGGTTCTAACCTGTTGCGGGT [TAGAGGGCTCC_LTGcore_AC_RTGcore_AC] (site TAGAGGGCTCC) (LTG core: AC, RTG core: AC)	0.247
TAGAGGGCATGGGTTCTAACCTGTTGCGGTG [TAGAGGGCTCC_LTGcore_CA_RTGcore_CA] (site TAGAGGGCTCC) (LTG core: CA, RTG core: CA)	0.23
TAGAGGGCTTGGGTTCTAACCTGTTGCGGAG [TAGAGGGCTCC_LTGcore_CT_RTGcore_CT] (site TAGAGGGCTCC) (LTG core: CT, RTG core: CT)	2.86
TAGAGGGCTTGGGTTCTAACCTGTTGCGGCC [TAGAGGGCTCC_LTGcore_CT_RTGcore_GG] (site TAGAGGGCTCC) (LTG core: CT, RTG core: GG)	0.0898

Sequence	recombinant barcode read abundance (log10)
TAGAGGGCTTGGGTTCTAACCTGTTGCGGGA [TAGAGGGCTCC_LTGcore_CT_RTGcore_TC] (site TAGAGGGCTCC) (LTG core: CT, RTG core: TC)	0.378
TAGAGGGCTTGGGTTCTAACCTGTTGCGGGT [TAGAGGGCTCC_LTGcore_CT_RTGcore_AC] (site TAGAGGGCTCC) (LTG core: CT, RTG core: AC)	0.122
TAGAGGGCTTGGGTTCTAACCTGTTGCGGTC [TAGAGGGCTCC_LTGcore_CT_RTGcore_GA] (site TAGAGGGCTCC) (LTG core: CT, RTG core: GA)	0.158
TAGAGGGCTTGGGTTCTAACCTGTTGCGGTT [TAGAGGGCTCC_LTGcore_CT_RTGcore_AA] (site TAGAGGGCTCC) (LTG core: CT, RTG core: AA)	0.0916
TAGAGGGGATGGGTTCTAACCTGTTGCGGAG [TAGAGGGCTCC_LTGcore_GA_RTGcore_CT] (site TAGAGGGCTCC) (LTG core: GA, RTG core: CT)	0.441
TCGCGACCATGGGTTCTAACCTGTTGCCGAG [TCGCGACCTCG_LTGcore_CA_RTGcore_CT] (site TCGCGACCTCG) (LTG core: CA, RTG core: CT)	0.0739
TCGCGACCTTGGGTTCTAACCTGTTGCCGCG [TCGCGACCTCG_LTGcore_CT_RTGcore_CG] (site TCGCGACCTCG) (LTG core: CT, RTG core: CG)	0.436
TCGCGACCTTGGGTTCTAACCTGTTGCCGGA [TCGCGACCTCG_LTGcore_CT_RTGcore_TC] (site TCGCGACCTCG) (LTG core: CT, RTG core: TC)	0.26
TCGCGACCTTGGGTTCTAACCTGTTGCCGTA [TCGCGACCTCG_LTGcore_CT_RTGcore_TA] (site TCGCGACCTCG) (LTG core: CT, RTG core: TA)	0.0883
TCGCGACTCTGGGTTCTAACCTGTTGCCGAG [TCGCGACCTCG_LTGcore_TC_RTGcore_CT] (site TCGCGACCTCG) (LTG core: TC, RTG core: CT)	0.0502
TCGCGACTCTGGGTTCTAACCTGTTGCCGGA [TCGCGACCTCG_LTGcore_TC_RTGcore_TC] (site TCGCGACCTCG) (LTG core: TC, RTG core: TC)	0.0969
TCGCGACTTTGGGTTCTAACCTGTTGCCGAA [TCGCGACCTCG_LTGcore_TT_RTGcore_TT] (site TCGCGACCTCG) (LTG core: TT, RTG core: TT)	0
TCTACCCAATGGGTTCTAACCTGTTGCTGAG [TCTACCCCTCA_LTGcore_AA_RTGcore_CT] (site TCTACCCCTCA) (LTG core: AA, RTG core: CT)	0.0508
TCTACCCACTGGGTTCTAACCTGTTGCTGAG [TCTACCCCTCA_LTGcore_AC_RTGcore_CT] (site TCTACCCCTCA) (LTG core: AC, RTG core: CT)	0.0555
TCTACCCAGTGGGTTCTAACCTGTTGCTGAG [TCTACCCCTCA_LTGcore_AG_RTGcore_CT] (site TCTACCCCTCA) (LTG core: AG, RTG core: CT)	0.467
TCTACCCCATGGGTTCTAACCTGTTGCTGAG [TCTACCCCTCA_LTGcore_CA_RTGcore_CT] (site TCTACCCCTCA) (LTG core: CA, RTG core: CT)	0.806
TCTACCCCTTGGGTTCTAACCTGTTGCTGCC [TCTACCCCTCA_LTGcore_CT_RTGcore_GG] (site TCTACCCCTCA) (LTG core: CT, RTG core: GG)	0.0951
TCTACCCGATGGGTTCTAACCTGTTGCTGAG [TCTACCCCTCA_LTGcore_GA_RTGcore_CT] (site TCTACCCCTCA) (LTG core: GA, RTG core: CT)	0.208
TCTACCCGGTGGGTTCTAACCTGTTGCTGCC [TCTACCCCTCA_LTGcore_GG_RTGcore_GG] (site TCTACCCCTCA) (LTG core: GG, RTG core: GG)	0.108
TCTACCCTCTGGGTTCTAACCTGTTGCTGAG [TCTACCCCTCA_LTGcore_TC_RTGcore_CT] (site TCTACCCCTCA) (LTG core: TC, RTG core: CT)	0.0968
TCTACCCTCTGGGTTCTAACCTGTTGCTGGA [TCTACCCCTCA_LTGcore_TC_RTGcore_TC] (site TCTACCCCTCA) (LTG core: TC, RTG core: TC)	0.032
